Experimental data from the NIST ThermoML archive (doi:10.1021/acs.jced.8b01209).
± gives the expanded uncertainty stated by the source.

How the values were obtained:
[1] = Crystal; DSC
[2] = Molar enthalpy of transition or fusion; conditions: Crystal; DSC

Compound: Cc1ccc2cc(C)ccc2c1 [2,6-dimethylnaphthalene]
- Triple point temperature [1]: 384.41 ± 1.2 K
- Molar enthalpy of transition or fusion [2]: 5.95 ± 0.136 kcal/mol
